Data on 29 molecules can be found in patent publication US7842695B2, “Substituted pyrazole compounds” (Merck Patent GmbH, priority 2003, dated 2010).

The target of one assay is 5-HT2A receptors (UniProt P14842). Kind of assay: in-vitro affinity to 5-HT2A receptors, [3H]ketanserine displacement (Example A1). Format: binding. The text has this:
The 5-HT2A receptors are exposed both to [^3H]ketanserine (a substance known for its affinity to the receptor) and also to the test compound. The decrease in the affinity of [^3H]ketanserine to the receptor is an indication of the affinity of the test substance to the 5-HT2A receptor.

The target in a further assay is T1, 5 HT2C receptor (Homo sapiens, UniProt P28335).
T1 sequence (P28335 33-458): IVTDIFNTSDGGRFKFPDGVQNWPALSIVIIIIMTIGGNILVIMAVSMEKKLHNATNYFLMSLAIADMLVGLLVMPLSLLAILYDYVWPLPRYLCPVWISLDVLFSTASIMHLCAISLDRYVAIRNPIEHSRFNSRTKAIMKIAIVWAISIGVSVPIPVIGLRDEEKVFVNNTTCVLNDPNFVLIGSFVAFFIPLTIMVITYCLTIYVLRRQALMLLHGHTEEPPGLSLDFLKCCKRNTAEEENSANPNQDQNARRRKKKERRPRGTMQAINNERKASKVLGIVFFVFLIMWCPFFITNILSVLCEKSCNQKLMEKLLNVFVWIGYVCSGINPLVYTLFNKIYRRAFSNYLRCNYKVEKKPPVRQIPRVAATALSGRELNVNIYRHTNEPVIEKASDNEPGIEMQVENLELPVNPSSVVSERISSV
Kind of assay: affinity to the 5 HT2C receptor. In kind it is binding.

Each structure is given as a SMILES string.

The IC50 is the midpoint of a concentration-inhibition curve. High values mean a need for much substance, low ones inhibition by little substance.

In the case of `CCN1CCN(Cc2cnn(-c3ccc(-c4ccc(OC)cc4)cc3)c2-c2ccco2)CC1` [Example 551, 1-Ethyl-4-[5-furan-2-yl-1-(4′-methoxybiphenyl-4-yl)-1H-pyrazol-4-ylmethyl]piperazine], the IC50 at 5-HT2A receptors was determined as 6.1 nM; on 5 HT2C receptor, 495 nM.
Take `COc1ccc(-c2ccc(-n3ncc(CN4CCN(C5CCCC5)CC4)c3-c3ccco3)cc2)cc1` [Example 552, 1-Cyclopentyl-4-[5-furan-2-yl-1-(4′-methoxybiphenyl-4-yl)-1H-pyrazol-4-ylmethyl]piperazine]: the IC50 at 5-HT2A receptors is 6.1 nM; at 5 HT2C receptor, 2950 nM.
The like results for `Cc1ccoc1-c1c(CN(C)C)cnn1-c1ccc(-c2ccc(F)cc2)cc1` [Example 553, [1-(4′-Fluorobiphenyl-4-yl)-5-(3-methyl-2-furanyl)-1H-pyrazol-4-ylmethyl]dimethylamine] were, in that order, 6.5 nM and 360 nM.
The corresponding values for `c1coc(-c2c(CN3CCN(C4CCCC4)CC3)cnn2-c2ccc(-c3ccc4c(c3)OCCO4)cc2)c1` [Example 554, 1-Cyclopentyl-4-{1-[4-(2,3-dihydrobenzo-1,4-dioxin-6-yl)phenyl]-5-furan-2-yl-1H-pyrazol-4-ylmethyl}piperazine] are 7 nM and 1300 nM.
With `CN1CCN(Cc2cnn(-c3ccc(-c4ccc(F)cc4)cc3)c2-c2ccsc2)CC1` [Example 556, 1-[1-(4′-Fluorobiphenyl-4-yl)-5-thiophen-3-yl-1H-pyrazol-4-ylmethyl]-4-methylpiperazine], the IC50 on 5-HT2A receptors stood at 7.8 nM; at 5 HT2C receptor, 630 nM.
In the case of `CCN1CCN(Cc2cnn(-c3ccc(-c4ccc5c(c4)OCCO5)cc3)c2-c2ccco2)CC1` [Example 557, 1-{1-[4-(2,3-Dihydrobenzo-1,4-dioxin-6-yl)phenyl]-5-furan-2-yl-1H-pyrazol-4-ylmethyl}-4-ethylpiperazine], the IC50 at 5-HT2A receptors came out at 8 nM; on 5 HT2C receptor, 349 nM.
The like results for `CC(C)N1CCN(Cc2cnn(-c3ccc(-c4ccc(F)cc4)cc3)c2-c2ccco2)CC1` [Example 558, 1-[1-(4′-Fluorobiphenyl-4-yl)-5-furan-2-yl-1H-pyrazol-4-ylmethyl]-4-isopropylpiperazine] were, in that order, 8.2 nM and 370 nM.
In the case of `CN1CCN(Cc2cnn(-c3ccc(-c4cccc(F)c4)cc3)c2-c2ccco2)CC1` [Example 559, 1-[1-(3′-Fluorobiphenyl-4-yl)-5-furan-2-yl-1H-pyrazol-4-ylmethyl]-4-methylpiperazine], the IC50 at 5-HT2A receptors came to 8.8 nM; against 5 HT2C receptor, 250 nM.
Consider `Cc1ccoc1-c1c(CN2CCN(C)CC2)cnn1-c1ccc(-c2ccc(F)cc2)cc1` [Example 560, 1-[1-(4′-Fluorobiphenyl-4-yl)-5-(3-methyl-2-furanyl)-1H-pyrazol-4-ylmethyl]-4-methylpiperazine], for which the IC50 at 5-HT2A receptors was found to be 8.9 nM; on 5 HT2C receptor it was 780 nM.
As for `Fc1ccc(-c2ccc(-n3ncc(CN4CCC(COc5ccccn5)CC4)c3-c3ccco3)cc2)cc1` [Example 561, 2-{1-[1-(4′-Fluorobiphenyl-4-yl)-5-furan-2-yl-1H-pyrazol-4-ylmethyl]piperidin-4-ylmethoxy}pyridine], the figures for the IC50 at 5-HT2A receptors and against 5 HT2C receptor were 9 nM and 1000 nM, respectively.
`OC1CCN(Cc2cnn(-c3ccc(-c4cccc(F)c4)cc3)c2-c2ccco2)C1` (stereo not shown) [Example 562, 1-[1-(3′-Fluorobiphenyl-4-yl)-5-furan-2-yl-1H-pyrazol-4-ylmethyl]pyrrolidin-3-ol]: the IC50 at 5-HT2A receptors is 9.1 nM; against 5 HT2C receptor, 530 nM.
`CN1CCN(Cc2cnn(-c3ccc(-c4ccc5c(c4)OCO5)cc3)c2-c2ccccc2F)CC1` [Example 563, 1-[1-(4-Benzo-1,3-dioxol-5-ylphenyl)-5-(2-fluorophenyl)-1H-pyrazol-4-ylmethyl]-4-methylpiperazine]: the IC50 amounted to 10 nM at 5-HT2A receptors and 510 nM against 5 HT2C receptor.
The like results for `COc1ccc(-c2ccc(-n3ncc(CN4CCC(O)C4)c3-c3ccco3)cc2)cc1` (stereo not shown) [Example 564, 1-[5-Furan-2-yl-1-(4′-methoxybiphenyl-4-yl)-1H-pyrazol-4-ylmethyl]pyrrolidin-3-ol] were, in that order, 10 nM and 630 nM.
With `c1coc(-c2c(CN3CCN(C4CCCC4)CC3)cnn2-c2ccc(-c3ccc4c(c3)OCO4)cc2)c1` [Example 569, 1-[1-(4-Benzo-1,3-dioxol-5-ylphenyl)-5-furan-2-yl-1H-pyrazol-4-ylmethyl]-4-cyclopentylpiperazine], the IC50 is 12 nM on 5-HT2A receptors and 1000 nM on 5 HT2C receptor.
On to `CCN1CCN(Cc2cnn(-c3ccc(-c4cccc(F)c4)cc3)c2-c2ccco2)CC1` [Example 570, 1-Ethyl-4-[1-(3′-fluorobiphenyl-4-yl)-5-furan-2-yl-1H-pyrazol-4-ylmethyl]piperazine], for which the IC50 amounted to 12 nM at 5-HT2A receptors and 500 nM on 5 HT2C receptor.
In the case of `COc1ccc(-c2ccc(-n3ncc(CCN4CCC(O)C4)c3-c3ccco3)cc2)cc1` (stereo not shown) [Example 571, 1-{2-[5-Furan-2-yl-1-(4′-methoxybiphenyl-4-yl)-1H-pyrazol-4-yl]ethyl}pyrrolidin-3-ol], the IC50 on 5-HT2A receptors was 12 nM; at 5 HT2C receptor, 800 nM.
The like results for `CN1CCN(Cc2cnn(-c3ccc(-c4ccsc4)cc3)c2-c2ccccc2F)CC1` [Example 574, 1-[5-(2-Fluorophenyl)-1-(4-thiophen-3-ylphenyl)-1H-pyrazol-4-ylmethyl]-4-methylpiperazine] were, in that order, 14 nM and 520 nM.
As for `CN(C)Cc1cnn(-c2ccc(-c3ccc(F)cc3)cc2)c1-c1ccoc1` [Example 576, [1-(4′-Fluorobiphenyl-4-yl)-5-furan-3-yl-1H-pyrazol-4-ylmethyl]dimethylamine], the IC50 amounted to 16 nM on 5-HT2A receptors and 180 nM against 5 HT2C receptor.
Take `CCN1CCN(Cc2cnn(-c3ccc(-c4ccc(F)cc4)cn3)c2-c2ccco2)CC1` [Example 583, 1-Ethyl-4-{1-[5-(4-fluorophenyl)pyridin-2-yl]-5-furan-2-yl-1H-pyrazol-4-ylmethyl}piperazine]: the IC50 came out at 18 nM on 5-HT2A receptors and 1000 nM against 5 HT2C receptor.
Take `COc1ccc(-c2ccc(-n3ncc(CN4CCN(C)CC4)c3-c3ccccc3F)cc2)cc1F` [Example 585, 1-[1-(3′-Fluoro-4′-methoxybiphenyl-4-yl)-5-(2-fluorophenyl)-1H-pyrazol-4-ylmethyl]-4-methylpiperazine]: the IC50 at 5-HT2A receptors turned out to be 19 nM; at 5 HT2C receptor it was 760 nM.
With `CN1CCN(Cc2cnn(-c3ccc(-c4ccc(F)cc4)cc3)c2-c2ccoc2)CC1` [Example 586, 1-[1-(4′-Fluorobiphenyl-4-yl)-5-furan-3-yl-1H-pyrazol-4-ylmethyl]-4-methylpiperazine], the IC50 is 19 nM on 5-HT2A receptors and 1000 nM against 5 HT2C receptor.
On to `Fc1ccccc1-c1c(CN2CCNCC2)cnn1-c1ccc(C(F)(F)F)cn1` [Example 588, 1-[5-(2-Fluorophenyl)-1-(5-trifluoromethylpyridin-2-yl)-1H-pyrazol-4-ylmethyl]piperazine], for which the results for the IC50 on 5-HT2A receptors and against 5 HT2C receptor were 20 nM and 1000 nM, respectively.
As to `CN1CCN(Cc2cnn(-c3ccc(-c4ccc(Cl)s4)cc3)c2-c2ccccc2F)CC1` [Example 589, 1-[1-[4-(5-Chlorothiophen-2-yl)phenyl]-5-(2-fluorophenyl)-1H-pyrazol-4-ylmethyl]-4-methylpiperazine], the values for the IC50 on 5-HT2A receptors and against 5 HT2C receptor were 20 nM and 2800 nM, respectively.
Take `CN1CCN(Cc2cnn(-c3ccc(-c4ccc(F)cc4)cn3)c2-c2ccco2)CC1` [Example 590, 1-{1-[5-(4-Fluorophenyl)pyridin-2-yl]-5-furan-2-yl-1H-pyrazol-4-ylmethyl}-4-methylpiperazine]: the IC50 at 5-HT2A receptors is 20 nM; on 5 HT2C receptor, 1000 nM.
The corresponding values for `Fc1ccc(-c2ccc(-n3ncc(CN4CCN(C5CCCC5)CC4)c3-c3ccco3)nc2)cc1` [Example 591, 1-Cyclopentyl-4-{1-[5-(4-fluorophenyl)pyridin-2-yl]-5-furan-2-yl-1H-pyrazol-4-ylmethyl}piperazine] are 20 nM and 1000 nM.
The like results for `COc1cccc(-c2c(CN(C)C)cnn2-c2ccc(-c3ccc(F)cc3)cc2)c1` [Example 592, [1-(4′-Fluorobiphenyl-4-yl)-5-(3-methoxyphenyl)-1H-pyrazol-4-ylmethyl]dimethylamine] were, in that order, 20 nM and 510 nM.
With `c1coc(-c2c(CN3CCNCC3)cnn2-c2ccc(-c3ccc4c(c3)OCCO4)cc2)c1` [Example 595, 1-{1-[4-(2,3-Dihydrobenzo-1,4-dioxin-6-yl)phenyl]-5-furan-2-yl-1H-pyrazol-4-ylmethyl}piperazine], the IC50 on 5-HT2A receptors turned out to be 22 nM; against 5 HT2C receptor, 150 nM.
Regarding `Cc1ccoc1-c1c(CN2CCC(O)C2)cnn1-c1ccc(-c2ccc(F)cc2)cc1` (stereo not shown) [Example 596, 1-[1-(4′-Fluorobiphenyl-4-yl)-5-(3-methyl-2-furanyl)-1H-pyrazol-4-ylmethyl]pyrrolidin-3-ol], the results for the IC50 on 5-HT2A receptors and against 5 HT2C receptor were 22 nM and 1000 nM, respectively.
Turning to `CCN1CCN(Cc2cnn(-c3ccc(-c4ccc5c(c4)OCCO5)cc3)c2-n2cccc2)CC1` [Example 600, 1-{1-[4-(2,3-Dihydrobenzo-1,4-dioxin-6-yl)phenyl]-5-pyrrol-1-yl-1H-pyrazol-4-ylmethyl}-4-ethylpiperazine], the IC50 on 5-HT2A receptors turned out to be 26 nM; on 5 HT2C receptor, 1000 nM.
